# Experimental data: patent EP4417602A1, “SUBSTITUTED PYRAZOLE CARBOXAMIDES, SALTS THEREOF AND THEIR USE AS HERBICIDALLY ACTIVE SUBSTANCES” (Bayer AG, priority 2023, dated 2024)
# Legend:
# ECHCG = test: A. Herbicidal pre-emergence action on harmful plants (Tables A); format: in vivo, Echinochloa crus-galli; settings: visual grading after ca. 3 weeks vs untreated controls, 100% = plants have died off, 0% = as control plants
# From the text: (§1) Seeds of mono- and dicotyledonous weed plants were sown in plastic pots (double sowings with one species of mono- and one species of dicotyledonous weed plants per pot), in sandy loam, and covered with soil. The compounds according to the invention, formulated in the form of wettable powders (WP) or as emulsifiable concentrates (EC), were applied to the surface of the covering soil as aqueous suspension or emulsion, with the addition of 0.5% of an additive, at an application rate of 6001 of water per hectare (converted). Following treatment, the pots were placed in a greenhouse and kept under optimum growth conditions for the test plants. The visual grading of the damage to the test plants was carried out after ca. 3 weeks in comparison to untreated controls (herbicidal effect in percent (%): 100% effect = plants have died off, 0% effect = as control plants). Tables A1 to A12, below, show the effects of selected compounds of the general formula (I) according to table 1 on various harmful plants and an application rate corresponding to 1280 g/ha or below obtained by the experimental procedure mentioned above. Table A1: pre-emergence activity at 1280g/ha against ABUTH in %
# SETVI = test: as above; format: in vivo, Setaria viridis; settings: visual grading after ca. 3 weeks vs untreated controls, 100% = plants have died off, 0% = as control plants
# From the text: as §1
# MATIN = test: as above; format: in vivo, Matricaria inodora; settings: visual grading after ca. 3 weeks vs untreated controls, 100% = plants have died off, 0% = as control plants
# From the text: as §1
# DIGSA = test: as above; format: in vivo, Digitaria sanguinalis
# From the text: as §1
# LOLRI = test: as above; format: in vivo, Lolium rigidum; settings: visual grading after ca. 3 weeks vs untreated controls, 100% = plants have died off, 0% = as control plants
# From the text: as §1
# POAAN [1] = test: as above; format: in vivo, Poa annua
# From the text: as §1
# ALOMY = test: as above; format: in vivo, Alopecurus myosuroides
# From the text: as §1
# STEME = test: as above; format: in vivo, Stellaria media; settings: visual grading after ca. 3 weeks vs untreated controls, 100% = plants have died off, 0% = as control plants
# From the text: as §1
# POAAN [2] = test: B. Herbicidal post-emergence action on harmful plants (Tables B); format: in vivo, Poa annua
# Protocol: Seeds of mono- and dicotyledonous weed plants were placed in plastic pots in sandy loam soil (doubly sown with in each case one species of mono- or dicotyledonous weed plants per pot), covered with soil and cultivated in a greenhouse under controlled growth conditions. 2 to 3 weeks after sowing, the test plants were treated at the one-leaf stage. The compounds of the invention, formulated in the form of wettable powders (WP) or as emulsion concentrates (EC), were applied onto the green parts of the plants as aqueous suspension or emulsion with addition of 0.5% additive at a water application rate of 600 liters per hectare (converted). After the test plants had been kept in the greenhouse under optimum growth conditions for about 3 weeks, the activity of the preparations was rated visually in comparison to untreated controls. For example, 100% activity = the plants have died, 0% activity = like control plants. Tables B1 to B12, below, show the effects of selected compounds of the general formula (I) according to table 1 on various harmful plants and an application rate corresponding to 1280 g/ha or below obtained by the experimental procedure mentioned above. Table B1a: post-emergence activity at 1280g/ha against ABUTH in %
# [3] = application rate 320 g/ha, Table A12b
# [4] = application rate 1280 g/ha, Table A12a
# [5] = application rate 320 g/ha, Table A7b
# [6] = application rate 1280 g/ha, visual grading after ca. 3 weeks vs untreated controls, 100% = plants have died off, 0% = as control plants
# [7] = application rate 1280 g/ha, Table A9a
# [8] = application rate 80 g/ha, Table A7c
# [9] = application rate 320 g/ha, Table B7b
# [10] = application rate 1280 g/ha, Table B7a
# [11] = application rate 80 g/ha, Table A12c
SMILES,pre-emergence activity against ECHCG (ECHCG; application rate 1280 g/ha),pre-emergence activity against SETVI (SETVI; application rate 1280 g/ha),pre-emergence activity against MATIN (MATIN; application rate 1280 g/ha),pre-emergence activity against DIGSA (DIGSA; [3]),pre-emergence activity against DIGSA (DIGSA; [4]),pre-emergence activity against LOLRI (LOLRI; application rate 1280 g/ha),pre-emergence activity against POAAN (POAAN [1]; [5]),pre-emergence activity against POAAN (POAAN [1]; [6]),pre-emergence activity against ECHCG (ECHCG; application rate 320 g/ha),pre-emergence activity against STEME (STEME; application rate 1280 g/ha),post-emergence activity against POAAN (POAAN [2]; [10]),other results
COCc1nn(C(C)C)cc1C(=O)N1CCCC1Cc1ccccc1F (racemic) [Example I-025],90%,90%,90%,90%,100%,90%,100%,100%,,,,
COCc1nn(CC2CC2)cc1C(=O)N1CCCC1Cc1ccccc1F (racemic) [Example I-026],90%,90%,,,100%,,,100%,,,,
CCn1cc(C(=O)N2CCCC2Cc2ccccc2F)c(COC)n1 (racemic) [Example I-027],90%,100%,,90%,90%,90%,,,90%,90%,,pre-emergence activity against ALOMY (ALOMY; [7]): 90%; pre-emergence activity against SETVI (SETVI; application rate 320 g/ha): 100%
COCc1nn(CC2OCCO2)cc1C(=O)N1CCCC1Cc1ccccc1F (racemic) [Example I-028],90%,90%,,,90%,,,100%,,,,
COCc1nn(CC#N)cc1C(=O)N1CCCC1Cc1ccccc1F (racemic) [Example I-029],90%,100%,90%,,100%,,,90%,,,,
COCCOCCn1cc(C(=O)N2CCCC2Cc2ccccc2F)c(COC)n1 (racemic) [Example I-030],90%,90%,90%,,90%,,90%,100%,,,,pre-emergence activity against POAAN (POAAN [1]; [8]): 90%
COCCn1cc(C(=O)N2CCCC2Cc2ccccc2F)c(COC)n1 (racemic) [Example I-032],90%,90%,,,100%,100%,100%,100%,90%,,,pre-emergence activity against SETVI (SETVI; application rate 320 g/ha): 90%
COCc1nn(CC(OC)OC)cc1C(=O)N1CCCC1Cc1ccccc1F (racemic) [Example I-047],100%,,,,90%,90%,,100%,,,,
COC(=O)c1nn(C)cc1C(=O)N1CCCC1Cc1ccc(F)cc1F (racemic) [Example I-096],100%,,,,100%,,100%,100%,100%,100%,100%,post-emergence activity against POAAN (POAAN [2]; [9]): 100%
Cn1cc(C(=O)N2CCC2Cc2ccccc2F)c(COCC(F)F)n1 (racemic) [Example I-108],100%,100%,100%,,100%,90%,100%,100%,100%,90%,90%,pre-emergence activity against POAAN (POAAN [1]; [8]): 90%
Cn1cc(C(=O)N2CCC2Cc2ccccc2Cl)c(COCC(F)F)n1 (racemic) [Example I-109],100%,90%,100%,90%,100%,,100%,100%,100%,,,
COCc1c(C(=O)N2CCCC2Cc2c(F)cccc2Cl)cnn1C (racemic) [Example I-151],100%,90%,,,100%,90%,,100%,,90%,,
"COCc1c(C(=O)N2CCCC2Cc2ccc(F)cc2F)cnn1C (single isomer, unassigned) [Example I-119]",90%,100%,,90%,100%,100%,,100%,,,90%,pre-emergence activity against SETVI (SETVI; application rate 320 g/ha): 90%
"COCc1c(C(=O)N2CCCC2Cc2c(F)cccc2F)cnn1C (single isomer, unassigned) [Example I-126]",90%,100%,90%,100%,100%,100%,90%,100%,90%,90%,90%,"pre-emergence activity against ALOMY (ALOMY; application rate 320 g/ha, Table A9b): 90%; pre-emergence activity against ALOMY (ALOMY; [7]): 90%; pre-emergence activity against ECHCG (ECHCG; application rate 80 g/ha): 90%; pre-emergence activity against SETVI (SETVI; application rate 80 g/ha): 90%; pre-emergence activity against SETVI (SETVI; application rate 320 g/ha): 90%; post-emergence activity against POAAN (POAAN [2]; application rate 80 g/ha, Table B7c): 90%; post-emergence activity against POAAN (POAAN [2]; [9]): 90%; pre-emergence activity against DIGSA (DIGSA; [11]): 90%; pre-emergence activity against LOLRI (LOLRI; application rate 320 g/ha): 90%; pre-emergence activity against POAAN (POAAN [1]; [8]): 90%; pre-emergence activity against STEME (STEME; application rate 320 g/ha): 90%"
"COCc1c(C(=O)N2CCCC2Cc2cccc(F)c2F)cnn1C (single isomer, unassigned) [Example I-137]",100%,100%,90%,100%,100%,100%,100%,100%,90%,,90%,pre-emergence activity against ECHCG (ECHCG; application rate 80 g/ha): 90%; pre-emergence activity against MATIN (MATIN; application rate 320 g/ha): 90%; pre-emergence activity against DIGSA (DIGSA; [11]): 100%; pre-emergence activity against LOLRI (LOLRI; application rate 320 g/ha): 90%; pre-emergence activity against POAAN (POAAN [1]; [8]): 100%
"COCc1c(C(=O)N2CCCC2Cc2c(F)cccc2Cl)cnn1C (single isomer, unassigned) [Example I-190]",100%,100%,,100%,100%,90%,100%,100%,90%,90%,90%,pre-emergence activity against POAAN (POAAN [1]; [8]): 90%
Cn1cc(C(=O)N2CCCC2Cc2ccccc2F)c(C2CCCO2)n1 (centres unmarked) [Example I-011],100%,,,,100%,90%,,100%,,90%,,
